Experimental data from ChEMBL document CHEMBL1201862, “PubChem BioAssay data set” (2004).
Calls of active or inactive are those of the source.

Legend:
[1] = biological target: T1, Corticotropin-releasing factor receptor 2/Corticotropin-releasing factor-binding protein (Homo sapiens, UniProt P24387+Q13324); test: activators of CRF receptor 2 with binding protein – uHTS hits, confirmation (AID 602473); assay type: functional; settings: read-out: EC50_Mean
T1 sequence (Q13324 whole entry): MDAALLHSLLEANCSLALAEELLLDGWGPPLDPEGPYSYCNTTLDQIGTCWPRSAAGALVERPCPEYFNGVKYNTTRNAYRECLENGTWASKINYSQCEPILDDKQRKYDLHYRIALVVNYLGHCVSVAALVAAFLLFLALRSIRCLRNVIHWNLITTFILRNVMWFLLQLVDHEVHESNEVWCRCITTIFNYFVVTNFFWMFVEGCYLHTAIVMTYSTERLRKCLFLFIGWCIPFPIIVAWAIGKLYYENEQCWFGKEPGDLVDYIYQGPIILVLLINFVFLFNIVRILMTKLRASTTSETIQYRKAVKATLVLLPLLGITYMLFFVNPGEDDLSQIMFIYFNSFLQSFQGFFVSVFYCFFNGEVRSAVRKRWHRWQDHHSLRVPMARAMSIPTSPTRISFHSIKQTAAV
T1 sequence (P24387 whole entry): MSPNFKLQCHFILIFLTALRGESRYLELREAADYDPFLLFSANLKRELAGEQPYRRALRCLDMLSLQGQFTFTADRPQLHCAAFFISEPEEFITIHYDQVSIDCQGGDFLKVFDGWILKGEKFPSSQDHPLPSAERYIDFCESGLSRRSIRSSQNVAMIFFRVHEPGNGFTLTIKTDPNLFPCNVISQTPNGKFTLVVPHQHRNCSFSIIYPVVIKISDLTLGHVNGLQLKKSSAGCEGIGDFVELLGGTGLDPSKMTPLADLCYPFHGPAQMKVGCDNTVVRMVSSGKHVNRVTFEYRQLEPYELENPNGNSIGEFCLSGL

[2] = biological target: T2, Endoribonuclease toxin MazF (Escherichia coli K-12, UniProt P0AE70); test: activation of MazEF endoribonuclease cleavage – biochemical, fluorescence, single-stranded RNA substrate, uHTS hits, dose response (AID 588481); assay type: functional
T2 sequence (P0AE70 whole entry): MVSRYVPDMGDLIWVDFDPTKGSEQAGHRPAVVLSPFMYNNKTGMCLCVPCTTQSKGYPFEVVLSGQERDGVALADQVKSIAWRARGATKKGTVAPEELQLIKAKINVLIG

[3] = biological target: T2, Endoribonuclease toxin MazF; test: substrate-only fluorescence increase artefacts – biochemical, single-stranded RNase substrate, counter-screen for MazEF activator project, dose response (AID 588502); assay type: functional
[4] = intracellular Trypanosoma cruzi inhibitors in host cells – cell-based, plate reader, cherry-pick samples, set 3, dose response (AID 651818); assay type: functional;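 also: compounds incubated with infected cells for about four days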
Steroidogenic factor 1 = Steroidogenic factor 1 (Homo sapiens, UniProt Q13285); test: Counterscreen for inverse agonists of the liver receptor homolog-1 (LRH-1; NR5A2): Luminescence-based cell-based high throughput dose response assay to identify inverse agonists of the Steroidogenic Factor 1 Nuclear Receptor (SF1; NR5A1).; assay type: functional
[5] = nonselective StAR promoter luciferase inhibitors – cell-based, luminescence, luciferase reporter, counter-screen for LRH-1 inverse agonist project, dose response (AID 651969); assay type: functional
[6] = biological target: Nuclear receptor subfamily 5 group A member 2 (Homo sapiens, UniProt O00482); assay type: functional, cell-based;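 also: HEK293T cells transfected with LRH-1 and a StAR promoter luciferase reporter; potency for inhibitors that lower LRH-1 driven reporter light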
Beta-lactamase [7] = biological target: T3, Beta-lactamase (Pseudomonas aeruginosa, UniProt Q79MP6); test: […] counterscreen for selective VIM-2 inhibitors: dose response biochemical high throughput screening assay to identify inhibitors of IMP-1 metallo-beta-lactamase.
Beta-lactamase [8] = biological target: T3, Beta-lactamase; test: inhibition of IMP-1 beta-lactamase activity – biochemical, epi-absorbance, selectivity assay for VIM-2 inhibitor project, dose response (AID 1920)
Beta-lactamase [9] = biological target: Beta-lactamase (Salmonella choleraesuis (strain SC-B67), UniProt Q5J463); test: Epi-absorbance-based counterscreen for selective VIM-2 inhibitors: dose response biochemical high throughput screening assay to identify inhibitors of TEM-1 serine-beta-lactamase.
[10] = A549 cell cytotoxicity, dose response, cytotoxicity control, plate reader, cherry-pick, antagonist series (AID 743412); assay type: functional, cell-based
[11] = blockers of bursicon-stimulated LGR2 cAMP reporter – cell-based, HEK293, CRE-luciferase reporter, cherry pick, set 2, dose response (AID 743343); assay type: functional;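 also: transfected cells were stimulated with diluted bursicon conditioned medium after compound addition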
HEK293 = test: EBV LMP1 TES2 canonical NF-kB signalling blockers – cell-based, HEK293, luciferase, cherry-pick, dose response (AID 588343); assay type: functional; settings: Homo sapiens
[12] = viability of uninfected HEp-2 cells – cell-based, HTS, cytotoxicity control for RSV inhibitor project, dose response (AID 2410); assay type: functional; settings: human respiratory syncytial virus
[13] = blockade of melanocortin 4 receptor signaling – cell-based, plate reader, cherry pick, counter-screen for LGR2 antagonist project, dose response (AID 743444); assay type: functional;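 also: transfected HEK 293 cells stimulated with alpha-MSH peptide; potency of inhibitors of the alpha-MSH evoked signal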
[14] = toxicity toward HepG2 liver cells – cell-based, plate reader, cherry-pick, antagonist series, cytotoxicity control, dose response (AID 743416); assay type: functional
[15] = viability loss in HEK293 cells – cell-based, plate reader, cherry-picked samples, cytotoxicity control, dose response (AID 743446); assay type: functional
Large T antigen = Large T antigen (Simian virus 40, UniProt P03070); assay type: functional, Betapolyomavirus macacae;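 also: Confirmatory-stage PubChem screen for compounds that inhibit SV40 T antigen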
[16] = NIH-3T3 fibroblast cytotoxicity, dose response, cytotoxicity control, cell-based, fluorescence, Alamar Blue, secondary assay (AID 2327); assay type: functional;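 also: NIH-3T3 mouse fibroblasts cultured with fluconazole at 8 µg/mL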
[17] = biological target: FAD-linked sulfhydryl oxidase ALR (Homo sapiens, UniProt P55789); test: ALR-catalysed DTT oxidation blockers – biochemical, H2O2 detection, luminescence, cherry-pick, dose response (AID 493248)
Genome polyprotein = Genome polyprotein (dengue virus type 2, UniProt P29990); test: flavivirus cap methylation enzyme inhibition – biochemical, confirmation dose response, primary screen (AID 588689); assay type: functional
Protein RecA = biological target: T4, Protein RecA (Mycobacterium tuberculosis, UniProt P9WHJ3); test: Fluorescence Cell-Free Homogeneous Dose Retest to Identify Inhibitors of RecA-Intein Splicing Activity. [Related pubchem assays (depositor defined):AID2097, AID2223, AID489010, AID492950]; assay type: functional
T4 sequence (P9WHJ3 whole entry): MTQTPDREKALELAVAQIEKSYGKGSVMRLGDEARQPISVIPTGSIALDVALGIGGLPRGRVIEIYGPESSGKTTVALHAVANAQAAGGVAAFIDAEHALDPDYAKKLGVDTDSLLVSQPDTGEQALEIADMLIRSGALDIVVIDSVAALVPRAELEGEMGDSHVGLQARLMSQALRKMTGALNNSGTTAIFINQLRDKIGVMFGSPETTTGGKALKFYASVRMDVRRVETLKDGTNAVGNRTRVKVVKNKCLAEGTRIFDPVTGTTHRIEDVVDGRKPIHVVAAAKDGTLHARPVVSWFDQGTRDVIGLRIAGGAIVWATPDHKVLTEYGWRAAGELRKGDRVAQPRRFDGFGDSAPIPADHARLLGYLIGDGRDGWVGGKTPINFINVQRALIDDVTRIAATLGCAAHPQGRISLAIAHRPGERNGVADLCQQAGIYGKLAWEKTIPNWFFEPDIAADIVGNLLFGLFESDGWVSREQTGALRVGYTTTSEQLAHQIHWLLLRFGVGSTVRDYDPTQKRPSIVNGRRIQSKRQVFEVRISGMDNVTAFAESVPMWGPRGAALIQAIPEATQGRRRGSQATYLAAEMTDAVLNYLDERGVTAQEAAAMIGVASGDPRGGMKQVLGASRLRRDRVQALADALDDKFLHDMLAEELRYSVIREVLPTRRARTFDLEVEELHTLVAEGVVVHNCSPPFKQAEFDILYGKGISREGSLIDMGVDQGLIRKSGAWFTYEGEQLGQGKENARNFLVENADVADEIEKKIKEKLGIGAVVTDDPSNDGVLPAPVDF

[18] = biological target: T5, Replicative DNA helicase DnaB (Mycobacterium tuberculosis, UniProt P9WMR3); test: DnaB intein splicing inhibitors, dose response, biochemical, cell-free fluorescence (AID 449749); assay type: functional
T5 sequence (P9WMR3 whole entry): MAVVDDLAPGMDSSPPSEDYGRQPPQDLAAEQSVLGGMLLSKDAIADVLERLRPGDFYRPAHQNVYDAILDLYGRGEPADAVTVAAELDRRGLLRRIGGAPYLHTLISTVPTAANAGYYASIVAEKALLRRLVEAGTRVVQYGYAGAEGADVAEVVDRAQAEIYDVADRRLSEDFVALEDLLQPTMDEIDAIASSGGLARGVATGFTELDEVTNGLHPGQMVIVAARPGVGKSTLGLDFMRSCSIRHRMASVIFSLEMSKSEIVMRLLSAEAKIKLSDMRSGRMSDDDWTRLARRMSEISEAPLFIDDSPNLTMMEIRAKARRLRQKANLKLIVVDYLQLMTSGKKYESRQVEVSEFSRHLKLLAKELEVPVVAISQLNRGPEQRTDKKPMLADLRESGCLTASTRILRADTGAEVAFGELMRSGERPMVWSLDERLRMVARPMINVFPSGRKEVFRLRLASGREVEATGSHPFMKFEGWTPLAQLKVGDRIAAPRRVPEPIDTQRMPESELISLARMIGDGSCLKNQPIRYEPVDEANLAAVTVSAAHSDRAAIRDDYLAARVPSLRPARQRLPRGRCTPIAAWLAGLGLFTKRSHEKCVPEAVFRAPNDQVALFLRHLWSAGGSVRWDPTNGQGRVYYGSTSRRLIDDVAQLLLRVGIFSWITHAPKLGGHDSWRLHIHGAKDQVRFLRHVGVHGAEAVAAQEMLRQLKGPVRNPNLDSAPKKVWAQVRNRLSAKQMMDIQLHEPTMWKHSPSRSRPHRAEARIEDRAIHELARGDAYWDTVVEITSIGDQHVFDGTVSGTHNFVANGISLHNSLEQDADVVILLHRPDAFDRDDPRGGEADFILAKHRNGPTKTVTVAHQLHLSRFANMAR

Chain of Beta-lactamase (Salmonella choleraesuis (strain SC-B67), UniProt Q5J463) (Q5J463 whole entry): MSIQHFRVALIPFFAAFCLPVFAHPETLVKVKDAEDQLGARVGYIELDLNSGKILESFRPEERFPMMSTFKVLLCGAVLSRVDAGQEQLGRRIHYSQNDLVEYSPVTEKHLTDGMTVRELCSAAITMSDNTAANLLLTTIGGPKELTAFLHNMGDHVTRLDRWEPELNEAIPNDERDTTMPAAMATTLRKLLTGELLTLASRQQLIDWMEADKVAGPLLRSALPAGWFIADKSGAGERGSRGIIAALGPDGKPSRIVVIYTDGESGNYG
T3 sequence (Q79MP6 whole entry): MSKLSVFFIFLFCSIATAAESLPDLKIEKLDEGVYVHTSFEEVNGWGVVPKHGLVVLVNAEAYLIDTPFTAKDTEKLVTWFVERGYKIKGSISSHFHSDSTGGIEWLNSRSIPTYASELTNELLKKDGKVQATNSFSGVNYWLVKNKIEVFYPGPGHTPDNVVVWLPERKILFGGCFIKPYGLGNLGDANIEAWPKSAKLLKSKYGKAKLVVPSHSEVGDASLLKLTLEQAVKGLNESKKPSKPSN
Chain of Steroidogenic factor 1 (Q13285 whole entry): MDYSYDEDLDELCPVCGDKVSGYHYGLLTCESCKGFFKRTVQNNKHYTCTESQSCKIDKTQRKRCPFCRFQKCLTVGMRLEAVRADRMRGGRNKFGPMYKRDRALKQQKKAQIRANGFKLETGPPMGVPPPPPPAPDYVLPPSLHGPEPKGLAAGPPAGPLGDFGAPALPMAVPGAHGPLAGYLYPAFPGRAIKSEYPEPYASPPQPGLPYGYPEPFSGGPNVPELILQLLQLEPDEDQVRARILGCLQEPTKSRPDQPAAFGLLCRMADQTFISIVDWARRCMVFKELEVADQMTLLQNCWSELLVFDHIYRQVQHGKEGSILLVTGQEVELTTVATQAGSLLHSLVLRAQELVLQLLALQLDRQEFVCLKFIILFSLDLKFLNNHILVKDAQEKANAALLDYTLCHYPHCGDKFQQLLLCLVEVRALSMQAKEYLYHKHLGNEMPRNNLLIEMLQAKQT
Chain of Nuclear receptor subfamily 5 group A member 2 (O00482 whole entry): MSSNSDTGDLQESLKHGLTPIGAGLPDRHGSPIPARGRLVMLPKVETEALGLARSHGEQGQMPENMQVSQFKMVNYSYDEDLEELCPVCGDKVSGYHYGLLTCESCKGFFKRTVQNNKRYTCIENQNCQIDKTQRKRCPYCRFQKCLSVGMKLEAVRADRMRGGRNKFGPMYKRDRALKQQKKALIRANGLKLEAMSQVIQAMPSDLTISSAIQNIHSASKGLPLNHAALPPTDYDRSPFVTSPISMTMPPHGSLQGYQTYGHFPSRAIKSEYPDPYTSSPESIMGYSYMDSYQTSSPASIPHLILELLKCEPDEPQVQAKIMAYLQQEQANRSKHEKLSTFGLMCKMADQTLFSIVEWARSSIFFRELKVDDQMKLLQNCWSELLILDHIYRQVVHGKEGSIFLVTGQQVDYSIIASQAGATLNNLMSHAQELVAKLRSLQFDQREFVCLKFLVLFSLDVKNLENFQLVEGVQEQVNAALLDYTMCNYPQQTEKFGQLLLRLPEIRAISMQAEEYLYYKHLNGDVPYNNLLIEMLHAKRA
Chain of Genome polyprotein (P29990 2492-3391 limits assumed): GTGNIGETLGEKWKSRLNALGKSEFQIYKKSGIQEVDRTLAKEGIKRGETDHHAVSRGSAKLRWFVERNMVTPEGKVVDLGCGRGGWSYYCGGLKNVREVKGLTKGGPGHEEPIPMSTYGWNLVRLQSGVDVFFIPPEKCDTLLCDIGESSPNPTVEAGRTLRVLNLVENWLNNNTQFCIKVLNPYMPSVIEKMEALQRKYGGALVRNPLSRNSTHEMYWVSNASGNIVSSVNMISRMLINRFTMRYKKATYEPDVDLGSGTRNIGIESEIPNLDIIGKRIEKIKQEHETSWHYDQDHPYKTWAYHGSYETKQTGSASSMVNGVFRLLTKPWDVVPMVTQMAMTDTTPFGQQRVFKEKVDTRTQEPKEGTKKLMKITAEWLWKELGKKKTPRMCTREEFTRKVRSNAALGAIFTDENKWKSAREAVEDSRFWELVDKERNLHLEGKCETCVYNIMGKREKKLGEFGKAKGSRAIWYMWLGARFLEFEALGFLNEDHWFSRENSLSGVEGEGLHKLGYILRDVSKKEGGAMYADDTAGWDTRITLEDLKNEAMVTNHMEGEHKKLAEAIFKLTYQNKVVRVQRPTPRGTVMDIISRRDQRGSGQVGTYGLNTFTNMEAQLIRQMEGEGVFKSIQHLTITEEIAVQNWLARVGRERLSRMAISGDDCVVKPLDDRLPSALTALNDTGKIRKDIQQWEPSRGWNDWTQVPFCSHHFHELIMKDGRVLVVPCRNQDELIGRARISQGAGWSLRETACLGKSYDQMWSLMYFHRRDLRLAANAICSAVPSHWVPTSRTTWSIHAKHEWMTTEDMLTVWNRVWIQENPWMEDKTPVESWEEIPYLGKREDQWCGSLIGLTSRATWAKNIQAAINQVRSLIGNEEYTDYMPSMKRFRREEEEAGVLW
Chain of FAD-linked sulfhydryl oxidase ALR (P55789 whole entry): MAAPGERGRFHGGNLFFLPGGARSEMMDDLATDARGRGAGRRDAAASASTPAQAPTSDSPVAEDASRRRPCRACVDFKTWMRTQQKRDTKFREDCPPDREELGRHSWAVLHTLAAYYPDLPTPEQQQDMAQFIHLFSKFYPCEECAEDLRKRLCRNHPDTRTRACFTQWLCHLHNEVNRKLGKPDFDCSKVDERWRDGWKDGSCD
Chain of Large T antigen (P03070 whole entry): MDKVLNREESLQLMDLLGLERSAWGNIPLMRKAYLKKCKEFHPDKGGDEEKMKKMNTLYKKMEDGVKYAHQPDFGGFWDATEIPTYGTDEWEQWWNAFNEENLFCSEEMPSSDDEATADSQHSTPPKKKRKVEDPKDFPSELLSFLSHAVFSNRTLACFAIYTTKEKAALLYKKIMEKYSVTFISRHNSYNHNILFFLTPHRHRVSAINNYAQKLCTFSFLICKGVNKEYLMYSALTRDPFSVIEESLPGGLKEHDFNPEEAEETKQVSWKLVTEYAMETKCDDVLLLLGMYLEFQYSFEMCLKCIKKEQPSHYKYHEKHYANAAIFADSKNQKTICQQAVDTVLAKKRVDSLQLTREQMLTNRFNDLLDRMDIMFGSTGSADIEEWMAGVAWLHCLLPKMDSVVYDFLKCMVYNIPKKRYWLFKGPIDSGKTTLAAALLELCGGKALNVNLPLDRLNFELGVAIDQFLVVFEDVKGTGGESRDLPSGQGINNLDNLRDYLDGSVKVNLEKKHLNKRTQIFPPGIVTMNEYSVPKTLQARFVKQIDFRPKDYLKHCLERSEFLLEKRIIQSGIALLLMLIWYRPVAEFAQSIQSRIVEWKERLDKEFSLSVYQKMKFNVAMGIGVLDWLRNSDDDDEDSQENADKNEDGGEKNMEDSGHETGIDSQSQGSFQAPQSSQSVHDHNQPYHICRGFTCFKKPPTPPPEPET

## CCCCC(=O)Nc1ccc(C(=O)Nc2ccc(OC)cc2[N+](=O)[O-])cc1
[1]
  EC50: 7.74 µM (active)
[2]
  EC50: > 99 µM (inactive)
[3]
  EC50: > 99 µM (inactive)

## C[C@@H]1CCCCO[C@@H](CN(C)C(=O)Nc2ccc(C(F)(F)F)cc2)[C@@H](C)CN([C@H](C)CO)C(=O)c2cc(NS(=O)(=O)c3ccc(Cl)cc3)ccc2O1
[4]
  AC50: 3.05 µM (active)

## CC(=O)Nc1ccc(NC(=O)CSc2nnc(NC(=O)C3CC3)s2)cc1
Steroidogenic factor 1
  IC50: 8.29 µM (active)
[5]
  IC50: 35.9 µM (inactive)
[6]
  IC50: 9.26 µM (active)

## COc1ccc(NC(=O)CSc2nc(N)c(-c3ccccc3)c(O)n2)cc1
Steroidogenic factor 1
  IC50: 2.36 µM (active)
[5]
  IC50: 35.9 µM (inactive)
[6]
  IC50: 9.88 µM (active)

## Cc1cccc(C2c3[nH]c4ccccc4c3CCN2C(=O)c2cc(CC(C)C)nc(=O)[nH]2)n1 (configuration not stated)
Beta-lactamase [7]
  IC50: > 59.6 µM (inactive)
Beta-lactamase [8]
  IC50: > 59.6 µM (inactive)
Beta-lactamase [9]
  IC50: > 59.6 µM (inactive)

## C[C@@H]1CN([C@@H](C)CO)C(=O)Cc2cc(NC(=O)Nc3ccc(C(F)(F)F)cc3)ccc2O[C@@H]1CN(C)Cc1ccc2c(c1)OCO2
[4]
  AC50: 2.01 µM (active)

## Cc1cccc(-n2ncc3c(N4CCOCC4)ncnc32)c1
[10]
  AC50: > 52 µM (inactive)
[11]
  AC50: 3.92 µM (active)
HEK293
  AC50: 1.36 µM (active)
[12]
  CC50: 19.1 µM (active)
[13]
  AC50: 3.94 µM (active)
[14]
  AC50: > 52 µM (inactive)

## C[C@H](CO)N1C[C@H](C)[C@H](CN(C)Cc2ccc(C(F)(F)F)cc2)Oc2ccc(NC(=O)Nc3ccc(F)cc3)cc2CC1=O
[4]
  AC50: 2.19 µM (active)

## C[C@@H]1CN([C@H](C)CO)C(=O)c2cccc(NC(=O)CCCCCC(=O)Nc3ccccc3N)c2O[C@H]1CN(C)CC1CC1
[4]
  AC50: 3.12 µM (active)

## Cc1csc(NC(=O)c2ccc(N3CCCC3=O)cc2)n1
[10]
  AC50: > 52 µM (inactive)
[11]
  AC50: 2.05 µM (active)
HEK293
  AC50: 1.52 µM (active)
[13]
  AC50: 1.93 µM (active)
[15]
  AC50: > 52 µM (inactive)

## CCn1c(/C=C/c2ccc(O)c(O)c2)nc2ccccc2c1=O
Large T antigen
  IC50: 35.6 µM (active)
[2]
  EC50: > 99 µM (inactive)
[3]
  EC50: 88.4 µM (inactive)

## O=C(NNc1ccc(O)cc1)c1ccc(Br)cc1
[16]
  EC50: 28.9 µM (active)
[17]
  AC50: 0.096 µM (active)
Genome polyprotein
  IC50: > 100 µM (active)

## Cc1cc(-c2ccccc2)c2c3c(c(-c4ccccc4)n2n1)c(=O)n(C)c(=O)n3C
[2]
  EC50: > 99 µM (inactive)
[3]
  EC50: > 99 µM (inactive)

## CC1=NN(Cc2ccccc2)C(=O)C1C(c1ccc(Cl)cc1)C(C#N)C#N (configuration not stated)
Protein RecA
  EC50: 2.5 µM (active)
Genome polyprotein
  IC50: 55.2 µM (active)
[18]
  AC50: 5.34 µM (active)

## COC(=O)c1c(/N=C/N(C)C)sc2c1CCN(c1ncc(C(F)(F)F)cc1Cl)C2
[2]
  EC50: > 99 µM (inactive)
[3]
  EC50: > 99 µM (inactive)

## Cn1c(-c2sccc2OCc2ccc(Cl)cc2Cl)n[nH]c1=S
Beta-lactamase [7]
  IC50: > 59.6 µM (inactive)
Beta-lactamase [8]
  IC50: > 59.6 µM (inactive)
Beta-lactamase [9]
  IC50: > 59.6 µM (inactive)

## O=C(CCN1C(=O)/C(=C/c2ccccc2F)SC1=S)NCCCn1ccnc1
Beta-lactamase [7]
  IC50: > 19.9 µM (inactive)
Beta-lactamase [8]
  IC50: > 59.6 µM (inactive)
Beta-lactamase [9]
  IC50: > 59.6 µM (inactive)

## CC(=O)Nc1ccc(NC(=O)CSc2ccc(-c3ccc(-n4ccnc4)cc3)nn2)cc1
Steroidogenic factor 1
  IC50: 35.9 µM (inactive)
[5]
  IC50: 35.9 µM (inactive)
[6]
  IC50: 35.9 µM (inactive)

## Cc1ccc(C)c(NC(=O)CSc2nc(O)c3c[nH]nc3n2)c1
Steroidogenic factor 1
  IC50: 6.65 µM (active)
[5]
  IC50: 35.9 µM (inactive)
[6]
  IC50: 29 µM (inactive)
